Assays:
[1] = tested on: CB MNCs; experiment: Reprogramming of cultured cord blood mononuclear cells by EBNA1/OriP plasmids; assay type: cell-based, human; conditions: added to pEB-C5
Protocol: After thawing, frozen MNCs from CB and PB) were cultured in the SFM supplemented with the following cytokines and a hormone: SCF (50 ng/ml), IL-3 (10 ng/ml), EPO (2U/ml, R&D Systems), IGF-1 (40 ng/ml) and dexamethasone (1 uM, Sigma). The media were replenished at day 3 and 6. By day 8-9 when an overt sign of cell division was observed, cells were harvested for nucleofection as well for various analyses. Approximately 3.5-fold cells were obtained for CB at day 8 and 1.5-fold for PB MNC at day 9. After optimizing nucleofection of the cultured MNCs to achieve maximal cell survival and gene transfer, the inventor settled down with the same Human CD34 Cell solution [Nucleofector Kit VPA-1003] but with 2×10^6 cultured cells. The transfected MNCs were cultured in the same medium for days and then further reprogrammed on MEF feeder cells as described above with cultured CD34+ cells. […]
TRA-1-60 Live Staining for identifying fully reprogrammed clones: TRA-1-60 antibody (mouse IgM, used as 1:300 of MAB4360, Millipore) and Alexa555-conjugated anti-mouse IgM secondary antibody (1:500, Invitrogen) were diluted in ESC medium and added into reprogramming cell culture plates. […] TRA-1-60 positive colonies were identified under an inverted fluorescence microscope, and can be picked up within 1 day after staining for further expansion and characterization.

[2] = tested on: CB CD34+ cells; experiment: Reprogramming of cord blood CD34+ cells by EBNA1/OriP plasmids, TRA-1-60+ colonies at day 14; assay type: cell-based, human; conditions: NaB 0.25 mM, with either vector combination
Protocol: In the first set of 3 experiments, the pEB-C5 and pEB-Tg plasmids were used in comparison with the Thomson/Yu combination #6 containing 3 plasmids. After expansion (˜5-flod) with cytokines for 4 days, CB CD34+ cells were transfected once and then cultured following the standard protocol of deriving human iPSCs. […] Transfected cells were cultured for 2 more days before transferring onto 6 wells coated with MEF feeder cells. At day 3, the ESC culture medium was used in the presence or absence of NaB (0.25 mM) or VPA (0.5 mM). After day 9, the MEF-derived conditioned medium (CM) was used to substitute plain ESC medium. […] At day 14, cultures can be stained live with the TRA-1-60 antibody. TRA-1-60+ colonies with ESC-like morphology were picked after counting all the colonies.
After thawing, CD34+ cells were cultured for 4 to 5 days under a serum-free medium (SFM): containing 50% IMDM with 50% Ham's F12 (Invitrogen), ITS supplement (insulin-transferrin-selenium and 5 mg/ml BSA), synthetic lipids, 50 ug/ml of ascorbic acid and 2 mM glutamine (all from Sigma). […]
The cell culture plates with sizable ESC-like colonies were incubated in 37° C. for 1 hour before medium was changed to fresh ESC medium or CM. TRA-1-60 positive colonies were identified under an inverted fluorescence microscope, and can be picked up within 1 day after staining for further expansion and characterization.

CCCC(=O)[O-].[Na+] [NaB, Sodium butyrate]
stimulatory effect on reprogramming [1]: minimal | effect on number (and percentages) of TRA-1-60+ colonies [2]: consistently enhance

— patent US20150139961A1, “Reprogramming Blood Cells to Pluripotent and Multipotent Stem Cells” (The Johns Hopkins University, priority 2009, published 2015)
